# From US12570642B2, “GLP-IR modulating compounds” (Gilead Sciences, Inc., priority 2021, dated 2026)
# Target: GLP-1R (Homo sapiens, UniProt P43220)
# Assay: GLP-1R Activation - cAMP Assay
# Assay type: cell-based
# Settings: cAMP increase in CHO cells stably expressing GLP-1R; each compound run on one of the two cAMP assays (Assay 1 or Assay 2, not specified)
# Method in brief: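 cAMP rise read by HTRF after 30 min agonist exposure (10-point titration, 37 °C) in HBSS/20 mM Hepes/0.1% BSA, following 1 h pre-incubation. Cells: stable GLP-1R CHO line, 1,000/well, seeded overnight. Sigmoidal fit of response vs log concentration gives EC50.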
# Sequence of GLP-1R (P43220 24-463): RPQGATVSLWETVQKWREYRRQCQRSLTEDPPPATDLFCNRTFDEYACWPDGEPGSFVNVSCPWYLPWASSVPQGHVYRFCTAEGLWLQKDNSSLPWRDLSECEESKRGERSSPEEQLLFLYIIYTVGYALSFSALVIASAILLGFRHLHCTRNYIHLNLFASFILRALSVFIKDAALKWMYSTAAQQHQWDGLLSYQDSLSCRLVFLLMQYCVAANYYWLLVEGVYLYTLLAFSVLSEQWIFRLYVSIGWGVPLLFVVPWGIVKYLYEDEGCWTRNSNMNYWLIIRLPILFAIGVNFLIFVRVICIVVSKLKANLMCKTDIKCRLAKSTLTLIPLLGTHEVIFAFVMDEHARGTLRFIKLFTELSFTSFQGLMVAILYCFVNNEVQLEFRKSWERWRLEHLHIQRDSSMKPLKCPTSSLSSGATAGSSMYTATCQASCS
row,EC50,SMILES
1,1.48 nM,"Cn1cccc(COc2cccc(-c3cc(F)c(Cc4nc5ccc(C(=O)O)cc5n4[C@@H]4COCC4(C)C)cc3F)n2)c1=O [Example 426, (S)-2-(2,5-difluoro-4-(6-((1-methyl-2-oxo-1,2-dihydropyridin-3-yl)methoxy)pyridin-2-yl)benzyl)-1-(4,4-dimethyltetrahydrofuran-3-yl)-1H-benzo[d]imidazole-6-carboxylic acid]"
2,0.501 nM,"Cn1ccc(COc2cccc(-c3cc(F)c(Cc4nc5ccc(C(=O)O)cc5n4[C@@H]4COCC4(C)C)cc3F)n2)cc1=O [Example 427, (S)-2-(2,5-difluoro-4-(6-((1-methyl-2-oxo-1,2-dihydropyridin-4-yl)methoxy)pyridin-2-yl)benzyl)-1-(4,4-dimethyltetrahydrofuran-3-yl)-1H-benzo[d]imidazole-6-carboxylic acid]"
3,0.105 nM,"CC1(C)COC[C@H]1n1c(Cc2cc(F)c(-c3ccc(F)c(OCc4ccc(C#N)cc4F)n3)cc2F)nc2ccc(C(=O)O)nc21 [Example 428, (S)-2-(4-(6-((4-cyano-2-fluorobenzyl)oxy)-5-fluoropyridin-2-yl)-2,5-difluorobenzyl)-3-(4,4-dimethyltetrahydrofuran-3-yl)-3H-imidazo[4,5-b]pyridine-5-carboxylic acid]"
4,0.139 nM,"CC1(C)COC[C@H]1n1c(Cc2cc(F)c(-c3cccc(OCc4ccncc4F)n3)cc2F)nc2ccc(C(=O)O)cc21 [Example 429, (S)-2-(2,5-difluoro-4-(6-((3-fluoropyridin-4-yl)methoxy)pyridin-2-yl)benzyl)-1-(4,4-dimethyltetrahydrofuran-3-yl)-1H-benzo[d]imidazole-6-carboxylic acid]"
5,0.02 nM,"COc1cnccc1COc1cccc(-c2cc(F)c(Cc3nc4ccc(C(=O)O)cc4n3[C@@H]3COCC3(C)C)cc2F)n1 [Example 430, (S)-2-(2,5-difluoro-4-(6-((3-methoxypyridin-4-yl)methoxy)pyridin-2-yl)benzyl)-1-(4,4-dimethyltetrahydrofuran-3-yl)-1H-benzo[d]imidazole-6-carboxylic acid]"
6,0.377 nM,"CC1(C)COC[C@H]1n1c(Cc2cc(F)c(-c3cccc(OCc4ccc(C5CC5)cc4)n3)cc2F)nc2ccc(C(=O)O)cc21 [Example 431, (S)-2-(4-(6-((4-cyclopropylbenzyl)oxy)pyridin-2-yl)-2,5-difluorobenzyl)-1-(4,4-dimethyltetrahydrofuran-3-yl)-1H-benzo[d]imidazole-6-carboxylic acid]"
7,0.114 nM,"CC1(C)COC[C@H]1n1c(Cc2cc(F)c(-c3ccc(Cl)c(OCc4ccc(C#N)cc4)n3)cc2F)nc2ccc(C(=O)O)cc21 [Example 432, (S)-2-(4-(5-chloro-6-((4-cyanobenzyl)oxy)pyridin-2-yl)-2,5-difluorobenzyl)-1-(4,4-dimethyltetrahydrofuran-3-yl)-1H-benzo[d]imidazole-6-carboxylic acid]"
8,0.209 nM,"CC1(C)COC[C@H]1n1c(Cc2cc(F)c(-c3ccc(Cl)c(OCc4ccc(Cl)cc4)n3)cc2F)nc2ccc(C(=O)O)cc21 [Example 433, (S)-2-(4-(5-chloro-6-((4-chlorobenzyl)oxy)pyridin-2-yl)-2,5-difluorobenzyl)-1-(4,4-dimethyltetrahydrofuran-3-yl)-1H-benzo[d]imidazole-6-carboxylic acid]"
9,0.058 nM,"CC1(C)COC[C@H]1n1c(Cc2cc(F)c(-c3ccc(Cl)c(OCc4ccc(C#N)cc4F)n3)cc2F)nc2ccc(C(=O)O)cc21 [Example 434, (S)-2-(4-(5-chloro-6-((4-cyano-2-fluorobenzyl)oxy)pyridin-2-yl)-2,5-difluorobenzyl)-1-(4,4-dimethyltetrahydrofuran-3-yl)-1H-benzo[d]imidazole-6-carboxylic acid]"
10,0.644 nM,"CC1(C)COC[C@H]1n1c(Cc2cc(F)c(-c3cccc(OCc4ccc(Cl)cc4F)n3)cc2F)nc2ccc(C(=O)O)nc21 [Example 437, (S)-2-(4-(6-((4-chloro-2-fluorobenzyl)oxy)pyridin-2-yl)-2,5-difluorobenzyl)-3-(4,4-dimethyltetrahydrofuran-3-yl)-3H-imidazo[4,5-b]pyridine-5-carboxylic acid]"
11,0.519 nM,"CC1(C)COC[C@H]1n1c(Cc2cc(F)c(-c3cccc(OCc4ccc(Cl)cc4)n3)cc2F)nc2ccc(C(=O)O)nc21 [Example 438, (S)-2-(4-(6-((4-chlorobenzyl)oxy)pyridin-2-yl)-2,5-difluorobenzyl)-3-(4,4-dimethyltetrahydrofuran-3-yl)-3H-imidazo[4,5-b]pyridine-5-carboxylic acid]"
12,0.171 nM,"CC1(C)COC[C@H]1n1c(Cc2cc(F)c(-c3cccc(OCc4ccc(C#N)cc4F)n3)cc2F)nc2ccc(C(=O)O)nc21 [Example 439, (S)-2-(4-(6-((4-cyano-2-fluorobenzyl)oxy)pyridin-2-yl)-2,5-difluorobenzyl)-3-(4,4-dimethyltetrahydrofuran-3-yl)-3H-imidazo[4,5-b]pyridine-5-carboxylic acid]"
13,0.956 nM,"CC1(C)COC[C@H]1n1c(Cc2cc(F)c(-c3cccc(OCc4ccc(C#N)cc4)n3)cc2F)nc2ccc(C(=O)O)nc21 [Example 440, (S)-2-(4-(6-((4-cyanobenzyl)oxy)pyridin-2-yl)-2,5-difluorobenzyl)-3-(4,4-dimethyltetrahydrofuran-3-yl)-3H-imidazo[4,5-b]pyridine-5-carboxylic acid]"
14,0.722 nM,"CC1(C)COC[C@H]1n1c(Cc2cc(F)c(-c3ccc(F)c(OCc4ccc(Cl)cc4)n3)cc2F)nc2c(Cl)cc(C(=O)O)cc21 [Example 441, (S)-4-chloro-2-(4-(6-((4-chlorobenzyl)oxy)-5-fluoropyridin-2-yl)-2,5-difluorobenzyl)-1-(4,4-dimethyltetrahydrofuran-3-yl)-1H-benzo[d]imidazole-6-carboxylic acid]"
15,0.042 nM,"Cn1cc(-c2ccc(COc3cccc(-c4cc(F)c(Cc5nc6ccc(C(=O)O)cc6n5[C@@H]5COCC5(C)C)cc4F)n3)c(F)c2)nn1 [Example 442, (S)-2-(2,5-difluoro-4-(6-((2-fluoro-4-(1-methyl-1H-1,2,3-triazol-4-yl)benzyl)oxy)pyridin-2-yl)benzyl)-1-(4,4-dimethyltetrahydrofuran-3-yl)-1H-benzo[d]imidazole-6-carboxylic acid]"
16,0.21 nM,"CC1(C)COC[C@H]1n1c(Cc2cc(F)c(-c3cccc(OCc4ccc(-c5cnn(C(F)F)c5)cc4F)n3)cc2F)nc2ccc(C(=O)O)cc21 [Example 443, (S)-2-(4-(6-((4-(1-(difluoromethyl)-1H-pyrazol-4-yl)-2-fluorobenzyl)oxy)pyridin-2-yl)-2,5-difluorobenzyl)-1-(4,4-dimethyltetrahydrofuran-3-yl)-1H-benzo[d]imidazole-6-carboxylic acid]"
17,0.365 nM,"Cc1ncc(-c2ccc(COc3cccc(-c4cc(F)c(Cc5nc6ccc(C(=O)O)cc6n5[C@@H]5COCC5(C)C)cc4F)n3)c(F)c2)s1 [Example 444, (S)-2-(2,5-difluoro-4-(6-((2-fluoro-4-(2-methylthiazol-5-yl)benzyl)oxy)pyridin-2-yl)benzyl)-1-(4,4-dimethyltetrahydrofuran-3-yl)-1H-benzo[d]imidazole-6-carboxylic acid]"
18,0.279 nM,"Cc1ncc(-c2ccc(COc3cccc(-c4cc(F)c(Cc5nc6ccc(C(=O)O)cc6n5[C@@H]5COCC5(C)C)cc4F)n3)c(F)c2)o1 [Example 445, (S)-2-(2,5-difluoro-4-(6-((2-fluoro-4-(2-methyloxazol-5-yl)benzyl)oxy)pyridin-2-yl)benzyl)-1-(4,4-dimethyltetrahydrofuran-3-yl)-1H-benzo[d]imidazole-6-carboxylic acid]"
